The target in test [1] is T1, Aquaporin Z (AQPZ) (Escherichia coli, UniProt P60844). The test can be described thus: Phospholipid binding to AQPZ resolved by native MS / IM-MS in C8E4. Also noted: species or system E. coli. Conditions: AQPZ in C8E4; optimised P:L:D ratio of Table 2.
In test [2] the target is T2, mechanosensitive channel of large conductance (MscL) (Mycobacterium tuberculosis, UniProt P9WJN5).
T2 sequence (P9WJN5 1-151): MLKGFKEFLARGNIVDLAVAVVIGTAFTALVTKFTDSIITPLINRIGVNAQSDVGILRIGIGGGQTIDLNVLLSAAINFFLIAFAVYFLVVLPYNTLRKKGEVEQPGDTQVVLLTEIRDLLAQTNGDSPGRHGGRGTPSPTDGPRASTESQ
The test can be described thus: Phospholipid binding to MscL resolved by native MS / IM-MS in C8E4. To be noted: optimised P:L:D ratio of Table 2.

Test [3] addresses T3, ammonia channel (AmtB) (Escherichia coli, UniProt P69681). The test can be described thus: Phospholipid binding to AmtB resolved by native MS / IM-MS in C8E4. Also noted: species or system E. coli. Conditions: for # Bound (number of resolvable phospholipids bound): AmtB in C8E4, optimised P:L:D ratio of Table 2; for extent of phospholipid binding to AmtB: in words, co-transport into the gas phase.

The target in test [4] is T3, ammonia channel (AmtB). The test can be described thus: Gas-phase (collision-induced) unfolding IM-MS: stabilisation of AmtB by bound phospholipid. Conditions: +15 charge state, versus apo form. The format is binding, E. coli. As for the experimental part:
(§1) IM-MS was used to resolve individual phospholipid-bound states of membrane proteins, in folded conformations, devoid of the complication of the lipid bilayer. Bound phospholipids were then ranked based on their ability to prevent gas-phase unfolding. Combining the IM-MS data for the three protein complexes with molecular dynamic (MD) simulations, probable lipid binding sites were then identified.
Ion mobility measurements were performed on a modified Synapt G1 HDMS instrument with the travelling-wave on mobility cell replaced by an 18-cm drift cell with radial RF on confinement and a linear voltage gradient to direct ions along the axis of transmission to the time-of-flight (TOF) mass analyser. Ion mobility mass spectrometer was typically set to a source pressure of 5-7 mBar, capillary voltage of 1.4-1.7 kV, capillary nanoflow of 0.03-0.2 mBar and argon as collision gas with flow rate set to 5-8 mL/min (˜6.6-6.7 e-2 mBar). Collision voltage ranged from 2-240 V with measurements taken at 5 V and 2 V steps for monitoring gas-phase unfolding of membrane and soluble protein complexes, respectively. The sample and extraction cone and trap bias voltages, quadrupole profile, and collision gas pressure were optimized for maximal ion intensity of the target membrane protein complex. Helium was the drift cell gas and set to a pressure of ˜1.6-1.8 Torr (40 ml/min flow rate). Pusher time, pulse width and TDC inhibit were set to 180, 7 and 7 μs, respectively. The ion guide/source (300 ms^−1, 10 V), trap (300 ms^−1, 0.2 V) and transfer (100 ms^−1, 10 V) travelling wave velocities and wave heights were kept constant. The mobility release time was set at 200 μs with a trap voltage of 30 V and extract voltage of 10 V. Pressure and temperature of the ion mobility cell was measured directly. Ion drift time (td) was determined as described in Bush et al (Analytical Chemistry, 2010, 82, 9557-.9565).
Ion mobility data were imported using a custom script provided by Waters at an m/z resolution of four in drift data and one in mass spectra for fitting. Mass spectra were smoothed and theoretical mass spectra were fitted as outlined above. A standardized integration window was employed for extracting arrival time distributions (ATD) using a resolution (R=[…]) of 1000 and a height cut-off of 25% for the modelled Gaussian to the respective m/z peak. […]
To extract quantitative values for the effects of phospholipid binding on unfolding pathways, an established equilibrium unfolding model, used extensively in solution studies involving chemical denaturation, was applied. […] By comparing the apo form of the protein with lipid bound states, the average stabilisation was calculated by fitting the unfolding pathway for the most abundant charge state, identifying four distinct intermediate states. […]

Test [5] deals with T1, Aquaporin Z (AQPZ). The test is described as follows: Gas-phase (collision-induced) unfolding IM-MS: stabilisation of AQPZ by bound phospholipid. The class given is binding, E. coli. To be noted: +13 charge state, versus apo form. On the procedure:
as §1
Ion mobility measurements were performed on a modified Synapt G1 HDMS instrument with the travelling-wave on mobility cell replaced by an 18-cm drift cell with radial RF on confinement and a linear voltage gradient to direct ions along the axis of transmission to the time-of-flight (TOF) mass analyser. […] The mobility release time was set at 200 μs with a trap voltage of 30 V and extract voltage of 10 V. Pressure and temperature of the ion mobility cell was measured directly. Ion drift time (td) was determined as described in Bush et al (Analytical Chemistry, 2010, 82, 9557-.9565). […]
To extract quantitative values for the effects of phospholipid binding on unfolding pathways, an established equilibrium unfolding model, used extensively in solution studies involving chemical denaturation, was applied. […]

“Also recorded” adds a separate entry of the source.

T1 sequence (P60844 whole entry): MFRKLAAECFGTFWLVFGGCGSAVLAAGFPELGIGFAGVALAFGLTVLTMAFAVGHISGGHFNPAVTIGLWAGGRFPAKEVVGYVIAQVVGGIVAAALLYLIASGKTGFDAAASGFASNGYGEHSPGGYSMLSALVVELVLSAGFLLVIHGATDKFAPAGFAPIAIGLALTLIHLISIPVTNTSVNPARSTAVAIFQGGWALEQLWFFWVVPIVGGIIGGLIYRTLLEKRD
T3 sequence (P69681 26-428): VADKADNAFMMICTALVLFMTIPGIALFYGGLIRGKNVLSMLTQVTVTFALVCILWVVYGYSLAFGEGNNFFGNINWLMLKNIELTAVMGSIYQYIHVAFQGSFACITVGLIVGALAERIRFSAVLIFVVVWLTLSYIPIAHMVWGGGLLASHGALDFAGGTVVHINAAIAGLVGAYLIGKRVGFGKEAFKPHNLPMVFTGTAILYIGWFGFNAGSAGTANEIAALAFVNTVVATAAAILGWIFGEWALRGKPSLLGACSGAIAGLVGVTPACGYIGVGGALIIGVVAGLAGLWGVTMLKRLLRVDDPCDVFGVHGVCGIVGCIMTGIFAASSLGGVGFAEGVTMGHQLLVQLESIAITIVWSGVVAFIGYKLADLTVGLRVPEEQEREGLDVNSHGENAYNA

Regarding `CCCCCCCC/C=C\CCCCCCCC(=O)O[C@H](COC(=O)CCCCCCCCCCCCCCC)COP(=O)(O)OC[C@H](N)C(=O)O` [PS, 1-palmitoyl-2-oleoyl-sn-glycero-3-phospho-L-serine (16:0-18:1)], the entries for the “# Bound (number of resolvable phospholipids bound)” value (shortened to “# Bound”) in test [1], in test [2] and in test [3] were 3, 2 and 3, respectively. For the same molecule, in test [3], the “extent of phospholipid binding to AmtB” value is “extensive”. Also, the “average stabilisation of AmtB by bound phospholipid (resistance to gas-phase unfolding)” value in test [4] was “not correlated with significant stabilisation”.
As to Cardiolipin (E. coli) [CDL], the “# Bound” value in test [1], in test [2] and in test [3] was 1 each time. Besides, the “extent of phospholipid binding to AmtB” value in test [3] was “only low populations”. Further, in test [4], the “average stabilisation of AmtB by bound phospholipid (resistance to gas-phase unfolding)” value is on record as “significant stabilisation”. Further, the “average stabilisation of AQPZ by bound phospholipid (resistance to gas-phase unfolding)” value in test [5] is listed as “substantial increase in protein stability compared to all other phospholipids; also recorded: stabilises AQPZ significantly”.
For the molecule L-α-phosphatidylglycerol (E. coli) [PG], the “# Bound” value in test [1] is 3; in test [2], 2; in test [3], 4. Besides, the bound phospholipid molecules result in test [3] (AmtB, moderate collision activation 175 V (FIG. 7a)) is recorded as “one to four”. Moreover, in test [4], the “average stabilisation of AmtB by bound phospholipid (resistance to gas-phase unfolding)” value is given as “dramatic increase in stabilisation; also recorded: significant stabilisation”.
For `CCCCCCCC/C=C\CCCCCCCC(=O)O[C@H](COC(=O)CCCCCCCCCCCCCCC)COP(=O)(O)O` [PA, 1-palrnitoyl-2-oleoyl-sn-glycero-3-phosphate (16:0-18:1)], the “# Bound” value in test [1] was determined as 2; in test [2] it was 1; in test [3], 3. Moreover, the “extent of phospholipid binding to AmtB” value in test [3] is reported as “extensive”. Besides, in test [4], the “average stabilisation of AmtB by bound phospholipid (resistance to gas-phase unfolding)” value is “not correlated with significant stabilisation”.

The values are drawn from patent US20150346214A1, “DETECTION OF MEMBRANE PROTEINS” (priority 2012, published 2015).
